Assays:
Experiment in all cases: DSF 100 kinase selectivity screen;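 for dTm: compound tested at 20 µM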
Format in all cases: binding
[1] = target: T1, ~100 representative kinases (Homo sapiens, UniProt P07332); conditions: protein FESA; average of three replicates
T1 construct: Recombinant protein kinase domains with a concentration of 2 μM
Procedure: (§1) Recombinant protein kinase domains with a concentration of 2 μM were mixed with a 20 μM compound solution in dimethyl sulfoxide (DMSO), 20 mM Hepes (pH 7.5), and 500 mM NaCl. SYPRO Orange (5000×, Invitrogen) was added as a fluorescence probe (1μl/ml). Subsequently, temperature-dependent protein unfolding profiles were measured using the QuantStudio 5 realtime PCR machine (Thermo Fisher Scientific, Waltham, MA, USA). […] The temperature was raised with a step rate of 3°C/min. […] Differences in melting temperature are given as ΔTm values in degrees Celsius. […]

[2] = target: T2, ~100 representative kinases (Homo sapiens, UniProt O43293); conditions: Protein DAPK3; average of three replicates
T2 construct: Recombinant protein kinase domains with a concentration of 2 μM
Procedure: as §1

[3] = target: T3, ~100 representative kinases (Homo sapiens, UniProt P45984); conditions: protein MAPK9; average of three replicates
T3 construct: Recombinant protein kinase domains with a concentration of 2 μM
Procedure: as §1

[4] = target: T4, ~100 representative kinases (Homo sapiens, UniProt Q9NSY1); conditions: Protein BMP2K; average of three replicates
T4 construct: Recombinant protein kinase domains with a concentration of 2 μM
Procedure: as §1

[5] = target: T5, ~100 representative kinases (Homo sapiens, UniProt P45985); conditions: protein MAP2K4; average of three replicates
T5 construct: Recombinant protein kinase domains with a concentration of 2 μM
T5 sequence (P45985 1-399): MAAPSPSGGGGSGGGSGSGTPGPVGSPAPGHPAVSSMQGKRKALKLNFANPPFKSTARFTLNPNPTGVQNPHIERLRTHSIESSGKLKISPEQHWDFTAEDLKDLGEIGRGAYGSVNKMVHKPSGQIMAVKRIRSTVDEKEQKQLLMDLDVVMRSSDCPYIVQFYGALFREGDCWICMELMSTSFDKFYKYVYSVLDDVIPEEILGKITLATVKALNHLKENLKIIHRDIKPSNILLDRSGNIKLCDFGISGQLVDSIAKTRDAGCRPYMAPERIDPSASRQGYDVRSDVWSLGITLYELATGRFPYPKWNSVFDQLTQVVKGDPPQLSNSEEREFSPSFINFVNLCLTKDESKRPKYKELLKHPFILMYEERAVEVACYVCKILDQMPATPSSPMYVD
Procedure: as §1

[6] = target: T6, ~100 representative kinases (Homo sapiens, UniProt O14733); conditions: protein MAP2K7; average of three replicates
T6 construct: Recombinant protein kinase domains with a concentration of 2 μM
T6 sequence (O14733 1-419): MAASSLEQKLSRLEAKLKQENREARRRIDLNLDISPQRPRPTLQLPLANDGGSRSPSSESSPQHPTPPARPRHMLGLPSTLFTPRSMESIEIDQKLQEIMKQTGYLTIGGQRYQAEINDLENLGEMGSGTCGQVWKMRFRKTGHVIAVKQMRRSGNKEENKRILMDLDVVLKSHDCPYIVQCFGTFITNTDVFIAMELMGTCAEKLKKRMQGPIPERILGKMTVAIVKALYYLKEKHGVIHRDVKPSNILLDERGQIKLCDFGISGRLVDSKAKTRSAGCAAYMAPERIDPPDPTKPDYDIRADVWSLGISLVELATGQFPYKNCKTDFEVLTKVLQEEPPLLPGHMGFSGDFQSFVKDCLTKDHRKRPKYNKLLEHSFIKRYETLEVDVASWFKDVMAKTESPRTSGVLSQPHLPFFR
Procedure: as §1

[7] = target: T7, ~100 representative kinases (Homo sapiens, UniProt Q9H2X6); conditions: protein HIPK2; average of three replicates
T7 construct: Recombinant protein kinase domains with a concentration of 2 μM
Procedure: as §1

[8] = target: T8, ~100 representative kinases (Homo sapiens, UniProt O15075); conditions: Protein DCAMKL1; average of three replicates
T8 construct: Recombinant protein kinase domains with a concentration of 2 μM
Procedure: as §1

[9] = target: T9, ~100 representative kinases (Homo sapiens, UniProt Q8TF76); conditions: protein GSG2; average of three replicates
T9 construct: Recombinant protein kinase domains with a concentration of 2 μM
T9 sequence (Q8TF76 1-798): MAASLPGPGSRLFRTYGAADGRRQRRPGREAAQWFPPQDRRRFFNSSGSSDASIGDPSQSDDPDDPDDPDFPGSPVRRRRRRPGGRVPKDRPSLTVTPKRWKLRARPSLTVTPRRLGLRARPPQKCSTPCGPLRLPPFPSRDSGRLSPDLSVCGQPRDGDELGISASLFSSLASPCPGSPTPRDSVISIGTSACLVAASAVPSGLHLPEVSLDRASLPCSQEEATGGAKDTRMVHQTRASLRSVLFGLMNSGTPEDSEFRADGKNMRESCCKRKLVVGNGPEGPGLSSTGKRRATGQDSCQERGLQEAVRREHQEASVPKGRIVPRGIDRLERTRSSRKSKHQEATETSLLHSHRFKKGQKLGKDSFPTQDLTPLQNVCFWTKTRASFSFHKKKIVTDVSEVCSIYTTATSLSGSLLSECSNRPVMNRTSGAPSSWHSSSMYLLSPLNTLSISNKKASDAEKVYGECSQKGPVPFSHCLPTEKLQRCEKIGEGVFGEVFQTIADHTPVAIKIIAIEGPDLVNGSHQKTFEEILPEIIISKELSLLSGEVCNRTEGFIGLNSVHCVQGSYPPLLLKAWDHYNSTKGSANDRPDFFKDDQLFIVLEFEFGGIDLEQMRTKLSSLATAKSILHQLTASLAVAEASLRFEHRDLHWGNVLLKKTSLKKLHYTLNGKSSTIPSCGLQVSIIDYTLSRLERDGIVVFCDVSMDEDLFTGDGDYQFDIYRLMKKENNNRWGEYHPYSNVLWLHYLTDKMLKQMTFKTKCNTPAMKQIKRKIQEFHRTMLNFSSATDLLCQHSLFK
Procedure: as §1

[10] = target: T10, ~100 representative kinases (Homo sapiens, UniProt O15264); conditions: protein MAPK13; average of three replicates
T10 construct: Recombinant protein kinase domains with a concentration of 2 μM
T10 sequence (O15264 1-365): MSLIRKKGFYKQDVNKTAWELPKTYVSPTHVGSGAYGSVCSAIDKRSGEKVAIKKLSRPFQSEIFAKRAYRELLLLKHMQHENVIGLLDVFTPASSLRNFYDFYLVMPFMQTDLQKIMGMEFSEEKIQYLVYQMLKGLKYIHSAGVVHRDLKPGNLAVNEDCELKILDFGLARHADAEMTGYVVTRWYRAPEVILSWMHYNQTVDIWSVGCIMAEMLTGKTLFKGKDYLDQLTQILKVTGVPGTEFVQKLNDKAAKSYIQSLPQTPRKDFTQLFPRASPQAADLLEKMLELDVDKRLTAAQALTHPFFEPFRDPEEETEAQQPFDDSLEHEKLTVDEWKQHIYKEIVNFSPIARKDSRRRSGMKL
Procedure: as §1

[11] = tested on: ~100 representative kinases; conditions: for dTm: Protein BRD, average of three replicates; for # >5K: number of proteins of the DSF panel with dTm >5K; for S (5 K) / share of screened kinases stabilized: DSF selectivity panel, thermal shift >5 K
Procedure: as §1

[12] = number of kinases with thermal shift >5 K divided by total number of kinases screened
[13] = selectivity score: # >5K divided by # of proteins tested in the DSF panel

T8 sequence (O15075 whole entry, the tested form may be a part): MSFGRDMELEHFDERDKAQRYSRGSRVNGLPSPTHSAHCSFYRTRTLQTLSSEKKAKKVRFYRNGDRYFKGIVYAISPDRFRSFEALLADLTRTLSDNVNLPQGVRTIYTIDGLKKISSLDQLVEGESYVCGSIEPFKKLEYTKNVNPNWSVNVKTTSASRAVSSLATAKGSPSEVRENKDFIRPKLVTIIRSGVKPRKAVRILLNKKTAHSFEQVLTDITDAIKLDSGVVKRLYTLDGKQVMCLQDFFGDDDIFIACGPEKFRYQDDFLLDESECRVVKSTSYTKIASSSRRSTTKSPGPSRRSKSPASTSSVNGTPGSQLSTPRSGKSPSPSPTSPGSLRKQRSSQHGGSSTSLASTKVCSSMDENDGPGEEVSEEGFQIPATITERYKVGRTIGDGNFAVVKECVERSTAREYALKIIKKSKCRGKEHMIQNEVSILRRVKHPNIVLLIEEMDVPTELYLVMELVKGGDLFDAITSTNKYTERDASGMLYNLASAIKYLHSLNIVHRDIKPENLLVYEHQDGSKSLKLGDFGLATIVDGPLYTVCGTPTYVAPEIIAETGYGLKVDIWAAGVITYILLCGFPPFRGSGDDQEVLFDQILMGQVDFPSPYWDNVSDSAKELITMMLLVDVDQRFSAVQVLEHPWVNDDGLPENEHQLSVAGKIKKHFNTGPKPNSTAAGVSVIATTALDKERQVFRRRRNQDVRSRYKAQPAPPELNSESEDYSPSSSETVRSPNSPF
T3 sequence (P45984 whole entry, the tested form may be a part): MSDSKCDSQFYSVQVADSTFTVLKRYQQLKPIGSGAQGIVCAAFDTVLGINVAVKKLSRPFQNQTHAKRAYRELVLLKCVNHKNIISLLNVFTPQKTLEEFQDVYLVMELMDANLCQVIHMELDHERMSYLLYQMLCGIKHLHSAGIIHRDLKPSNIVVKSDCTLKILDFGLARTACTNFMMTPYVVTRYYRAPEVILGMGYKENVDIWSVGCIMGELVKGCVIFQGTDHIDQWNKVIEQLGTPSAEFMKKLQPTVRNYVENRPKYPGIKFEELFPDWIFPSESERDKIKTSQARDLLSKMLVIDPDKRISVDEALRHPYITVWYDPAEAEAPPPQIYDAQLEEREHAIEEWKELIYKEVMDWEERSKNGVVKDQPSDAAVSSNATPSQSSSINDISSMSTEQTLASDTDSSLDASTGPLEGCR
T4 sequence (Q9NSY1 whole entry, the tested form may be a part): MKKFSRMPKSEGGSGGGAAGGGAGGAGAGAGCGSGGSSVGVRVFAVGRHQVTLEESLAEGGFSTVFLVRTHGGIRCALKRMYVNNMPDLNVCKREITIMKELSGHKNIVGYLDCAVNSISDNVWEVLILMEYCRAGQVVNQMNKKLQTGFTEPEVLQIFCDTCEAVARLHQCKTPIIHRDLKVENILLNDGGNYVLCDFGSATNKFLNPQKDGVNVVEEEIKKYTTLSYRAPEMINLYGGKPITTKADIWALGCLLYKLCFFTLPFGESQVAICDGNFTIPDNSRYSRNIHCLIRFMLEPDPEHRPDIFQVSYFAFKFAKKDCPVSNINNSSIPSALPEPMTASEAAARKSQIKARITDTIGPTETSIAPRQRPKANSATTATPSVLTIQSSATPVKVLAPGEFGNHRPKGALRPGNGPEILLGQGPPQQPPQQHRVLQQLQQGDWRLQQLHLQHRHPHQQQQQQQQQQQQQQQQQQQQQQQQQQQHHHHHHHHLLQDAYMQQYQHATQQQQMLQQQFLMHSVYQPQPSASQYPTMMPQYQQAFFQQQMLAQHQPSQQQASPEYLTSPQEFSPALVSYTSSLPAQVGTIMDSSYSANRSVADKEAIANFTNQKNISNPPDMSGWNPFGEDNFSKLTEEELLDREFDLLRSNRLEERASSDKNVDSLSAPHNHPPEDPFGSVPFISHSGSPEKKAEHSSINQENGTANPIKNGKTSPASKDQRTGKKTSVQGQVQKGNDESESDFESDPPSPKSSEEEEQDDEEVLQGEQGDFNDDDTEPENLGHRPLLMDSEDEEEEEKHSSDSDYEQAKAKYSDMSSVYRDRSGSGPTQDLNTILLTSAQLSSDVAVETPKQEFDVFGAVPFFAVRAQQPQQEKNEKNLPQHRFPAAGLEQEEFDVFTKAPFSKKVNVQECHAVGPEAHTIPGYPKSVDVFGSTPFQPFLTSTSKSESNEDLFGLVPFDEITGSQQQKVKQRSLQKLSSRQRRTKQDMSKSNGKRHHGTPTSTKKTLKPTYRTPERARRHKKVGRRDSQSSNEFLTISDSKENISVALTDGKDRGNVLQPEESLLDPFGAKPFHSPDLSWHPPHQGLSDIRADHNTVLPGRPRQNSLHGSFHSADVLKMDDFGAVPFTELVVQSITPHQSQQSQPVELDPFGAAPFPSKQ
T1 sequence (P07332 whole entry, the tested form may be a part): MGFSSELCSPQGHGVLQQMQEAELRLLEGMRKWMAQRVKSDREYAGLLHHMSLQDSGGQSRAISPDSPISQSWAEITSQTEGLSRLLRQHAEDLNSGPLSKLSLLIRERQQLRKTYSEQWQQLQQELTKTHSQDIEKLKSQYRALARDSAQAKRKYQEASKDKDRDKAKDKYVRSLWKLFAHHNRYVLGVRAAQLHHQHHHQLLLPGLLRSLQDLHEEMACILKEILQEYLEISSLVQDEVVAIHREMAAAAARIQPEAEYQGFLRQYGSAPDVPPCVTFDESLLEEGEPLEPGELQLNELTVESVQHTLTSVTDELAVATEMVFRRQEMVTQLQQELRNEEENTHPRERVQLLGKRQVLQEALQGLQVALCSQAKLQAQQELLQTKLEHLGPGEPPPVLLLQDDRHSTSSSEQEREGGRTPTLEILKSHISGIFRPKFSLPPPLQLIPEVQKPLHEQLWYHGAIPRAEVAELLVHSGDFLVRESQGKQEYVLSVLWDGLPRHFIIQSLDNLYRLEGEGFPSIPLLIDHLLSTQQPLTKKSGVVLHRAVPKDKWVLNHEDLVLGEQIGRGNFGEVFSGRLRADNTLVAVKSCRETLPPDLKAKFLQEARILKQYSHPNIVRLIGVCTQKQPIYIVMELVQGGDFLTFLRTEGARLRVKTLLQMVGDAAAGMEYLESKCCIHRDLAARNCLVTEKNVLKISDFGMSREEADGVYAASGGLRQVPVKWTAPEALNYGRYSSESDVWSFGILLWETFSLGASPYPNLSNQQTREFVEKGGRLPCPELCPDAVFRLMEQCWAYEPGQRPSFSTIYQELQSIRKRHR
T2 sequence (O43293 whole entry, the tested form may be a part): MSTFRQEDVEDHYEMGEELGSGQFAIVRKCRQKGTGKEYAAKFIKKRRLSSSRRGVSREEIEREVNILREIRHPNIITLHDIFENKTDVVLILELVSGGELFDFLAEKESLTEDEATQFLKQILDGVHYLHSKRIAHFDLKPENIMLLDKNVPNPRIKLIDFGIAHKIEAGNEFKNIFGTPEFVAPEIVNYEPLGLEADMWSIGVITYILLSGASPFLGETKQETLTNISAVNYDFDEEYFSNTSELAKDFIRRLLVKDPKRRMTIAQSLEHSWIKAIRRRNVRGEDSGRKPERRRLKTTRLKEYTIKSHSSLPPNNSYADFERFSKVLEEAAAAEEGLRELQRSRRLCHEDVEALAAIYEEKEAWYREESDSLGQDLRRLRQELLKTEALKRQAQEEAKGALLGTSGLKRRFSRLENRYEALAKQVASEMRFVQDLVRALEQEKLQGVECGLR
T7 sequence (Q9H2X6 whole entry, the tested form may be a part): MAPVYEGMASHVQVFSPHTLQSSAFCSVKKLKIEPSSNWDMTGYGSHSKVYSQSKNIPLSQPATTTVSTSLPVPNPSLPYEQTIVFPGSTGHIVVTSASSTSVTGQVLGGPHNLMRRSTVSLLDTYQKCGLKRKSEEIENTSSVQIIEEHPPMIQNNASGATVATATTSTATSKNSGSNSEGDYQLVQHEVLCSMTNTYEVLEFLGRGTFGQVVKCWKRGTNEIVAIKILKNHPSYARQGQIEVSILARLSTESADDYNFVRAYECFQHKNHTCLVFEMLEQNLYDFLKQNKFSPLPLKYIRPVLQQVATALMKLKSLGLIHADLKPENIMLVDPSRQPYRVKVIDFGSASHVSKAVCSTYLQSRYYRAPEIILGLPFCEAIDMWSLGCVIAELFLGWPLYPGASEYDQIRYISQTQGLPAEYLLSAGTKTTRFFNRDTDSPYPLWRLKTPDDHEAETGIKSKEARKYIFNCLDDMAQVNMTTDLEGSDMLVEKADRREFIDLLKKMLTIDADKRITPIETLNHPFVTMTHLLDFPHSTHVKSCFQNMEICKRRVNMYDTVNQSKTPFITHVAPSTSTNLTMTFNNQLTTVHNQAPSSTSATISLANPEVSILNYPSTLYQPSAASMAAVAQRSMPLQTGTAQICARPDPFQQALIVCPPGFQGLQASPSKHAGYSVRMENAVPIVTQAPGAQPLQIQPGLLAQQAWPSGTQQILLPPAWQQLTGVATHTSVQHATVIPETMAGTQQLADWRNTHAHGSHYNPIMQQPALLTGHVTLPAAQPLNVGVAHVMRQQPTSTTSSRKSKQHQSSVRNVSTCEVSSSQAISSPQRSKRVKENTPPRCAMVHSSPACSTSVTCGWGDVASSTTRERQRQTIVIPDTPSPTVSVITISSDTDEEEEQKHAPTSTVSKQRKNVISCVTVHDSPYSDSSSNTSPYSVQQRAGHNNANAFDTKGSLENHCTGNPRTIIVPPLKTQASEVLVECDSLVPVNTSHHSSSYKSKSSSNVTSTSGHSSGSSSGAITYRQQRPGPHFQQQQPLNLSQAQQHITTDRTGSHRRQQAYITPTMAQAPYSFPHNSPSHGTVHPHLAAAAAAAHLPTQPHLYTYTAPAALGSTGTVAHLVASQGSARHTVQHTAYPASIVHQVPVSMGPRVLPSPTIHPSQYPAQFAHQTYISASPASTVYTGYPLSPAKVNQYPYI

dTm [1] [K]	dTm [2] [K]	dTm [3] [K]	dTm [4] [K]	dTm [5] [K]	dTm [6] [K]	dTm [7] [K]	dTm [8] [K]	dTm [9] [K]	dTm [10] [K]	dTm [11] [K]	S(5K) [11, 12]	# >5K [11]	S(5K) [11, 13]	S (5 K) / share of screened kinases stabilized [11] [%]	Structure (SMILES)
4.70	3.66	2.02	7.18	5.20	3.10	6.30	-0.73	-2.84	7.48	-1.02	0.16	16	0.160	16	O=C(Nc1cccc(-c2c[nH]c3ncnc(N4CCOCC4)c23)c1)C1(C(=O)Nc2ccc(F)cc2F)CC1 [Compound 23]
4.12	3.33	4.16	8.56	5.91	4.41	1.82	2.70	-2.96	6.18	1.00	0.15	16	0.154	–	O=C(Nc1cccc(-c2c[nH]c3ncnc(N4CCOCC4)c23)c1)C1(C(=O)Nc2cccc3c2CCC3)CC1 [Compound 11]
6.39	6.20	2.81	7.72	5.86	4.30	7.64	0.95	-0.45	7.89	-0.35	0.26	26	0.260	–	O=C(Nc1ccccc1)C1(C(=O)Nc2cccc(-c3c[nH]c4ncnc(N5CCOCC5)c34)c2)CC1 [Compound 12]
6.93	10.62	5.44	8.58	6.47	5.35	10.76	2.36	-3.25	12.04	0.45	0.36	36	0.360	–	O=C(Nc1cccc(-c2c[nH]c3ncnc(N4CCOCC4)c23)c1)C1(C(=O)Nc2ccc(F)c(Cl)c2)CC1 [Compound 18]

Second part, the compound before the results:

Structure (SMILES)	dTm [1] [K]	dTm [2] [K]	dTm [3] [K]	dTm [4] [K]	dTm [5] [K]	dTm [6] [K]	dTm [7] [K]	dTm [8] [K]	dTm [9] [K]	dTm [10] [K]	dTm [11] [K]	S(5K) [11, 12]	# >5K [11]	S(5K) [11, 13]	S (5 K) / share of screened kinases stabilized [11] [%]
CC(=O)N1CCN(c2nc(Cl)nc3[nH]cc(-c4cccc(NC(=O)Nc5cc(C(C)(C)C)nn5-c5ccc(C)cc5)c4)c23)CC1 [Compound 31]	0.00	6.63	5.47	1.28	1.72	2.84	2.23	2.11	-3.39	11.86	-3.84	0.15	15	0.149	–
O=C(Nc1cccc(-c2c[nH]c3ncnc(N4CCOCC4)c23)c1)C1(C(=O)Nc2ccc(F)c(Br)c2F)CC1 [Compound 26]	3.48	3.21	4.90	9.57	5.24	3.31	2.07	3.55	-2.00	4.55	1.43	0.14	15	0.144	14
C[C@@H]1CN(c2cc(-c3n[nH]c4ccc(OC5(C)CC5)cc34)ncn2)C[C@H](C)O1 [MLi2]	1.83	1.94	0.30	2.01	0.87	-0.41	0.22	0.51	0.08	0.32	0.12	–	2	0.019	–
COc1cc(S(C)(=O)=O)ccc1Nc1nc(N(C)C)c2c(Cl)c[nH]c2n1 [Compound 37]	2.13	3.62	0.96	0.08	4.74	-0.81	0.11	-0.34	0.32	0.37	0.52	0.05	5	0.050	–
COc1cc(C(=O)N2CCOCC2)c(F)cc1Nc1nc(N(C)C)c2c(Cl)c[nH]c2n1 [Compound 36]	2.67	6.29	2.71	1.71	10.31	2.56	0.93	2.05	-1.75	0.85	-0.29	0.14	14	0.139	–
CC(C)(C)c1cc(NC(=O)Nc2cccc(-c3c[nH]c4ncnc(N5CCOCC5)c34)c2)n(-c2ccc3ncccc3c2)n1 [Compound 28]	9.54	14.79	6.00	6.24	6.08	3.13	9.47	3.53	-2.39	16.99	-0.0106	0.49	49	0.490	49

— article PMC12136037, “Type II kinase inhibitors that target Parkinson’s disease–associated LRRK2” (Science Advances, 2025)
